Test results taken from DBAASP.
≈ marks a conversion by molar mass, not a printed value.

Key:
Test in all cases: ≥ marks a high value that may be exact or a test limit, other limits are often not marked, values filed in µg/mL are converted to µM
[1] = tested on: Pseudomonas aeruginosa Ps4
[2] = tested on: Staphylococcus aureus ATCC 33591
[3] = tested on: Cryptococcus neoformans ATCC 32045
[4] = tested on: Pseudomonas aeruginosa ATCC 10145
[5] = tested on: Escherichia coli ATCC 2592
[6] = tested on: Candida albicans ATCC 10231
[7] = tested on: Escherichia coli JW0013

Structure (SMILES) | MIC [1] [µM] | MIC [2] [µM] | MIC [3] [µM] | MIC [4] [µM] | MIC [5] [µM] | MIC [6] [µM] | MIC [7] [µM]
CC[C@H](C)[C@H](NC(=O)[C@H](CC(N)=O)NC(=O)[C@H](CCCN=C(N)N)NC(=O)[C@H](CCC(N)=O)NC(=O)[C@H](Cc1c[nH]c2ccccc12)NC(=O)[C@@H](N)Cc1ccccc1)C(=O)N[C@@H](CCCN=C(N)N)C(=O)N[C@H](C(=O)N[C@@H](CCCN=C(N)N)C(N)=O)C(C)C [FWQRNIRVR] | ≥ 196 |  |  |  |  |  | 
C[C@H](NC(=O)[C@H](C)NC(=O)[C@H](CCCCN)NC(=O)[C@H](CCCCN)NC(=O)[C@H](C)NC(=O)[C@H](C)NC(=O)[C@H](CCCCN)NC(=O)[C@H](CCCCN)NC(=O)[C@H](C)NC(=O)[C@H](C)NC(=O)[C@H](CCCCN)NC(=O)[C@H](CCCCN)NC(=O)[C@H](C)NC(=O)[C@H](C)NC(=O)[C@H](CCCCN)NC(=O)[C@H](CCCCN)NC(=O)[C@H](C)NC(=O)[C@H](C)NC(=O)[C@H](CCCCN)NC(=O)[C@H](CCCCN)NC(=O)[C@H](C)NC(=O)[C@H](C)NC(=O)[C@H](CCCCN)NC(=O)[C@H](CCCCN)NC(=O)[C@H](C)NC(=O)[C@H](C)NC(=O)[C@@H](N)CCCCN)C(=O)N[C@@H](CCCCN)C(=O)O [KAAKKAAKKAAKKAAKKAAKKAAKKAAK] |  | ≥ 178 | 31.4 (≈ 88 µg/mL) | ≥ 89 | ≥ 178 | > 178 | 
NCCCC[C@H](NC(=O)[C@H](Cc1ccccc1)NC(=O)[C@H](CCCCN)NC(=O)[C@H](CCCCN)NC(=O)[C@H](Cc1ccccc1)NC(=O)[C@H](CCCCN)NC(=O)[C@H](CCCCN)NC(=O)[C@H](Cc1ccccc1)NC(=O)[C@H](CCCCN)NC(=O)[C@H](CCCCN)NC(=O)[C@H](Cc1ccccc1)NC(=O)[C@H](CCCCN)NC(=O)[C@H](CCCCN)NC(=O)[C@H](Cc1ccccc1)NC(=O)[C@H](CCCCN)NC(=O)[C@H](CCCCN)NC(=O)[C@H](Cc1ccccc1)NC(=O)[C@@H](N)CCCCN)C(=O)O [KFKKFKKFKKFKKFKKFK] |  | ≥ 205 | 20.4 (≈ 49.8 µg/mL) | ≥ 51.2 | ≥ 36.1 | 145 (≈ 354 µg/mL) | 
C[C@H](NC(=O)[C@H](Cc1ccccc1)NC(=O)[C@H](CCCCN)NC(=O)[C@H](CCCCN)NC(=O)[C@H](C)NC(=O)[C@H](Cc1ccccc1)NC(=O)[C@H](CCCCN)NC(=O)[C@H](CCCCN)NC(=O)[C@H](C)NC(=O)[C@H](Cc1ccccc1)NC(=O)[C@H](CCCCN)NC(=O)[C@H](CCCCN)NC(=O)[C@H](C)NC(=O)[C@H](Cc1ccccc1)NC(=O)[C@H](CCCCN)NC(=O)[C@H](CCCCN)NC(=O)[C@H](C)NC(=O)[C@H](Cc1ccccc1)NC(=O)[C@H](CCCCN)NC(=O)[C@H](CCCCN)NC(=O)[C@H](C)NC(=O)[C@H](Cc1ccccc1)NC(=O)[C@H](CCCCN)NC(=O)[C@@H](N)CCCCN)C(=O)O [KKFAKKFAKKFAKKFAKKFAKKFA] |  | ≥ 87.2 | 15.5 (≈ 44.5 µg/mL) | 21.6 (≈ 62 µg/mL) | 7.9 (≈ 22.6 µg/mL) | 61.7 (≈ 177 µg/mL) | 
CC(C)C[C@H](NC(=O)[C@H](C)NC(=O)[C@H](CC(C)C)NC(=O)[C@H](C)NC(=O)[C@H](CC(C)C)NC(=O)[C@H](C)NC(=O)[C@H](CC(C)C)NC(=O)[C@H](C)NC(=O)[C@H](CC(C)C)NC(=O)[C@H](C)NC(=O)[C@H](CC(C)C)NC(=O)[C@H](C)NC(=O)[C@H](CC(C)C)NC(=O)[C@H](C)NC(=O)[C@H](CC(C)C)NC(=O)[C@H](C)NC(=O)[C@H](CC(C)C)NC(=O)[C@H](C)NC(=O)[C@H](CC(C)C)NC(=O)[C@H](C)NC(=O)[C@@H](N)CC(C)C)C(=O)N[C@@H](C)C(=O)O [LALALALALALALALALALALA] |  | ≥ 86.5 | ≥ 43.1 | ≥ 122 | ≥ 86.5 | > 245 | 
CC(C)C[C@H](NC(=O)[C@H](CCCCN)NC(=O)[C@H](CC(C)C)NC(=O)[C@H](CCCCN)NC(=O)[C@H](CC(C)C)NC(=O)[C@H](CCCCN)NC(=O)[C@H](CC(C)C)NC(=O)[C@H](CCCCN)NC(=O)[C@H](CC(C)C)NC(=O)[C@H](CCCCN)NC(=O)[C@H](CC(C)C)NC(=O)[C@H](CCCCN)NC(=O)[C@H](CC(C)C)NC(=O)[C@H](CCCCN)NC(=O)[C@@H](N)CC(C)C)C(=O)N[C@@H](CCCCN)C(=O)O [LKLKLKLKLKLKLKLK] |  | ≥ 90.7 | 23 (≈ 44.9 µg/mL) | ≥ 66.7 | ≥ 64.1 | 181 (≈ 354 µg/mL) | 
CC[C@H](C)[C@H](NC(=O)[C@H](CCCN=C(N)N)NC(=O)[C@H](CCCN=C(N)N)NC(=O)[C@@H]1CCCN1C(=O)[C@@H]1CCCN1C(=O)[C@H](CCCN=C(N)N)NC(=O)[C@@H]1CCCN1C(=O)[C@H](CCCN=C(N)N)NC(=O)[C@@H]1CCCN1C(=O)[C@H](CC(C)C)NC(=O)[C@H](Cc1ccc(O)cc1)NC(=O)[C@@H]1CCCN1C(=O)[C@@H]1CCCN1C(=O)[C@H](CCCCN)NC(=O)[C@H](Cc1c[nH]c2ccccc12)NC(=O)[C@@H](N)C(C)C)C(=O)N[C@@H](Cc1ccc(O)cc1)C(=O)N[C@@H](CC(N)=O)C(=O)N[C@@H](CCCN=C(N)N)C(N)=O [VWKPPYLPRPRPPRRIYNR] |  |  |  |  |  |  | 1.95 (≈ 4.8 µg/mL)

Second part, the molecule after the results:

MIC [1] [µM] | MIC [2] [µM] | MIC [3] [µM] | MIC [4] [µM] | MIC [5] [µM] | MIC [6] [µM] | MIC [7] [µM] | Structure (SMILES)
≥ 155 |  |  |  |  |  |  | CC[C@H](C)[C@H](NC(=O)[C@H](CC(N)=O)NC(=O)[C@H](CCCN=C(N)N)NC(=O)[C@H](CCC(N)=O)NC(=O)[C@H](Cc1c[nH]c2ccccc12)NC(=O)[C@H](Cc1ccccc1)NC(=O)[C@@H](N)CS)C(=O)N[C@@H](CCCN=C(N)N)C(=O)N[C@@H](CCCCN)C(=O)N[C@H](C(=O)N[C@@H](CS)C(=O)N[C@@H](CCCN=C(N)N)C(N)=O)C(C)C [CFWQRNIRKVCR]
≥ 180 |  |  |  |  |  |  | CC[C@H](C)[C@H](NC(=O)[C@H](CC(N)=O)NC(=O)[C@H](CCCN=C(N)N)NC(=O)[C@@H](NC(=O)[C@H](Cc1c[nH]c2ccccc12)NC(=O)[C@@H](N)Cc1ccccc1)[C@@H](C)CC)C(=O)N[C@@H](CCCN=C(N)N)C(=O)N[C@@H](CCCCN)C(=O)N[C@H](C(=O)N[C@@H](CCCN=C(N)N)C(N)=O)C(C)C [FWIRNIRKVR]
≥ 137 |  |  |  |  |  |  | CC[C@H](C)[C@H](NC(=O)[C@H](CCCN=C(N)N)NC(=O)[C@H](CCCN=C(N)N)NC(=O)[C@H](CCCN=C(N)N)NC(=O)[C@@H](NC(=O)[C@H](CCCCN)NC(=O)[C@H](CCCN=C(N)N)NC(=O)[C@@H](NC(=O)[C@H](CC(N)=O)NC(=O)[C@H](CCCN=C(N)N)NC(=O)[C@H](CCC(N)=O)NC(=O)[C@H](Cc1c[nH]c2ccccc12)NC(=O)[C@@H](N)Cc1ccccc1)[C@@H](C)CC)C(C)C)C(N)=O [FWQRNIRKVRRRI]
≥ 250 |  |  |  |  |  |  | CC[C@H](C)[C@H](NC(=O)[C@H](CC(N)=O)NC(=O)[C@H](CCCN=C(N)N)NC(=O)[C@@H](NC(=O)[C@H](Cc1c[nH]c2ccccc12)NC(=O)[C@@H](N)Cc1ccccc1)C(C)C)C(=O)N[C@@H](CCCN=C(N)N)C(=O)N[C@@H](CCCCN)C(=O)N[C@H](C(=O)N[C@@H](CCCN=C(N)N)C(N)=O)C(C)C [FWVRNIRKVR]
 | ≥ 72.7 | ≥ 36.2 | ≥ 51.4 | ≥ 79.6 | 145 (≈ 354 µg/mL) |  | CC(C)C[C@H](NC(=O)[C@H](CCCCN)NC(=O)[C@H](CC(C)C)NC(=O)[C@H](CCCCN)NC(=O)[C@H](CC(C)C)NC(=O)[C@H](CCCCN)NC(=O)[C@H](CC(C)C)NC(=O)[C@H](CCCCN)NC(=O)[C@H](CC(C)C)NC(=O)[C@H](CCCCN)NC(=O)[C@H](CC(C)C)NC(=O)[C@H](CCCCN)NC(=O)[C@H](CC(C)C)NC(=O)[C@H](CCCCN)NC(=O)[C@H](CC(C)C)NC(=O)[C@H](CCCCN)NC(=O)[C@H](CC(C)C)NC(=O)[C@H](CCCCN)NC(=O)[C@@H](N)CC(C)C)C(=O)N[C@@H](CCCCN)C(=O)O [LKLKLKLKLKLKLKLKLKLK]
 | ≥ 161 | 20.3 (≈ 44.5 µg/mL) | ≥ 36.5 | ≥ 40.2 | 161 (≈ 354 µg/mL) |  | CC(C)C[C@H](NC(=O)[C@H](CCCCN)NC(=O)[C@H](CC(C)C)NC(=O)[C@H](CCCCN)NC(=O)[C@H](CC(C)C)NC(=O)[C@H](CCCCN)NC(=O)[C@H](CC(C)C)NC(=O)[C@H](CCCCN)NC(=O)[C@H](CC(C)C)NC(=O)[C@H](CCCCN)NC(=O)[C@H](CC(C)C)NC(=O)[C@H](CCCCN)NC(=O)[C@H](CC(C)C)NC(=O)[C@H](CCCCN)NC(=O)[C@H](CC(C)C)NC(=O)[C@H](CCCCN)NC(=O)[C@@H](N)CC(C)C)C(=O)N[C@@H](CCCCN)C(=O)O [LKLKLKLKLKLKLKLKLK]
≥ 145 |  |  |  |  |  |  | CC[C@H](C)[C@H](NC(=O)[C@H](CC(N)=O)NC(=O)[C@H](CCCN=C(N)N)NC(=O)[C@H](CCC(N)=O)NC(=O)[C@H](Cc1c[nH]c2ccccc12)NC(=O)[C@H](CCCN=C(N)N)NC(=O)[C@@H](N)CCCN=C(N)N)C(=O)N[C@@H](CCCN=C(N)N)C(=O)N[C@@H](CCCCN)C(=O)N[C@H](C(=O)N[C@@H](CCCN=C(N)N)C(=O)N[C@@H](CCCN=C(N)N)C(N)=O)C(C)C [RRWQRNIRKVRR]
 |  |  |  |  |  | 0.638 (≈ 1.6 µg/mL) | CC[C@H](C)[C@H](NC(=O)[C@H](CCCN=C(N)N)NC(=O)[C@H](CCCN=C(N)N)NC(=O)[C@@H]1CCCN1C(=O)[C@@H]1CCCN1C(=O)[C@H](CCCN=C(N)N)NC(=O)[C@H](CCCN=C(N)N)NC(=O)[C@H](CCCN=C(N)N)NC(=O)[C@@H]1CCCN1C(=O)[C@H](CC(C)C)NC(=O)[C@H](Cc1ccc(O)cc1)NC(=O)[C@@H]1CCCN1C(=O)[C@H](CCCN=C(N)N)NC(=O)[C@H](CCCCN)NC(=O)[C@H](CC(=O)O)NC(=O)[C@@H](N)C(C)C)C(=O)N[C@@H](Cc1ccc(O)cc1)C(=O)N[C@@H](CC(N)=O)C(=O)N[C@@H](CCCN=C(N)N)C(N)=O [VDKRPYLPRRRPPRRIYNR]
 |  |  |  |  |  | 1.97 (≈ 4.8 µg/mL) | CC[C@H](C)[C@H](NC(=O)[C@H](CCCN=C(N)N)NC(=O)[C@H](CCCN=C(N)N)NC(=O)[C@@H]1CCCN1C(=O)[C@@H]1CCCN1C(=O)[C@H](CCCN=C(N)N)NC(=O)[C@@H]1CCCN1C(=O)[C@H](CCCN=C(N)N)NC(=O)[C@@H]1CCCN1C(=O)[C@H](CC(C)C)NC(=O)[C@H](Cc1ccc(O)cc1)NC(=O)[C@@H]1CCCN1C(=O)[C@@H]1CCCN1C(=O)[C@H](CCCCN)NC(=O)[C@H](Cc1ccc(O)cc1)NC(=O)[C@@H](N)C(C)C)C(=O)N[C@@H](Cc1ccc(O)cc1)C(=O)N[C@@H](CC(N)=O)C(=O)N[C@@H](CCCN=C(N)N)C(N)=O [VYKPPYLPRPRPPRRIYNR]
